Measurements published in ChEMBL document CHEMBL3881524, “Use of benzothiazepines having activity as inhibitors of ileal bile acid transport for reducing cholesterololemia” (2005).

Assays:
Assay type in all cases: functional
Mus musculus [1] = assay: Reduction in plasma total cholesterol level in LDL receptor/ApoE deficient mouse at 0.625 umol/kg/day dosed via gavage route once daily in afternoon for first three days and in morning the last day by FPLC method relative to untreated control; parameters: scale not given: the % may be the effect or the level left
Mus musculus [2] = assay: Reduction in plasma total cholesterol level in LDL receptor/ApoE deficient mouse at […] dosed via gavage route once daily in afternoon for first three days and in morning the last day by FPLC method relative to untreated control; parameters: scale not given: the % may be the effect or the level left
Mus musculus [3] = assay: Reduction in plasma LDL level in LDL receptor/ApoE deficient mouse at […] dosed via gavage route once daily in afternoon for first three days and in morning the last day by FPLC method relative to untreated control; parameters: scale not given: the % may be the effect or the level left
Mus musculus [4] = assay: Effect on plasma triglyceride level in LDL receptor/ApoE deficient mouse at 10 umol/kg/day dosed via gavage route once daily in afternoon for first three days and in morning the last day relative to untreated control
Mus musculus [5] = assay: Reduction in plasma total cholesterol level in LDL receptor/ApoE deficient mouse at 10 umol/kg/day dosed via gavage route once daily in afternoon for first three days and in morning the last day by FPLC method relative to untreated control; parameters: scale not given: the % may be the effect or the level left
Mus musculus [6] = assay: Reduction in plasma cholesterol in LP-remnants in LDL receptor/ApoE deficient mouse at 10 umol/kg/day dosed via gavage route once daily in afternoon for first three days and in morning the last day by FPLC method relative to untreated control; parameters: scale not given: the % may be the effect or the level left
Mus musculus [7] = assay: Reduction in plasma LDL level in LDL receptor/ApoE deficient mouse at 10 umol/kg/day dosed via gavage route once daily in afternoon for first three days and in morning the last day by FPLC method relative to untreated control; parameters: scale not given: the % may be the effect or the level left
Mus musculus [8] = assay: Effect on plasma HDL level in LDL receptor/ApoE deficient mouse at 10 umol/kg/day dosed via gavage route once daily in afternoon for first three days and in morning the last day by FPLC method relative to untreated control
Mus musculus [9] = assay: Reduction in plasma cholesterol in LP-remnants plus LDL/HDL ratio level in LDL receptor/ApoE deficient mouse at 10 umol/kg/day dosed via gavage route once daily in afternoon for first three days and in morning the last day by FPLC method relative to untreated control; parameters: scale not given: the % may be the effect or the level left
Mus musculus [10] = assay: Effect on plasma triglyceride level in LDL receptor/ApoE deficient mouse at 10 umol/kg/day dosed via gavage route and co-administered with 80 to 100 mg/kg/day mixed with R3 chow diet for 7 days relative to untreated control
Mus musculus [11] = assay: Reduction in plasma total cholesterol level in LDL receptor/ApoE deficient mouse at 10 umol/kg/day dosed via gavage route and co-administered with 80 to 100 mg/kg/day mixed with R3 chow diet for 7 days relative to untreated control; parameters: scale not given: the % may be the effect or the level left
Mus musculus [12] = assay: Reduction in plasma cholesterol in LP-remnants in LDL receptor/ApoE deficient mouse at 10 umol/kg/day dosed via gavage route and co-administered with 80 to 100 mg/kg/day mixed with R3 chow diet for 7 days relative to untreated control; parameters: scale not given: the % may be the effect or the level left
Mus musculus [13] = assay: Reduction in plasma LDL level in LDL receptor/ApoE deficient mouse at 10 umol/kg/day dosed via gavage route and co-administered with 80 to 100 mg/kg/day mixed with R3 chow diet for 7 days relative to untreated control; parameters: scale not given: the % may be the effect or the level left
Mus musculus [14] = assay: Effect on plasma HDL level in LDL receptor/ApoE deficient mouse at 10 umol/kg/day dosed via gavage route and co-administered with 80 to 100 mg/kg/day mixed with R3 chow diet for 7 days relative to untreated control
Mus musculus [15] = assay: Reduction in plasma cholesterol in LP-remnants plus LDL/HDL ratio level in LDL receptor/ApoE deficient mouse at 10 umol/kg/day dosed via gavage route and co-administered with 80 to 100 mg/kg/day mixed with R3 chow diet for 7 days relative to untreated control; parameters: scale not given: the % may be the effect or the level left
Mus musculus [16] = assay: Reduction in plasma LDL level in LDL receptor/ApoE deficient mouse at 80 to 100 mg/kg/day mixed with R3 chow diet by FPLC method relative to untreated control; parameters: scale not given: the % may be the effect or the level left
Mus musculus [17] = assay: Effect on plasma HDL level in LDL receptor/ApoE deficient mouse at 80 to 100 mg/kg/day mixed with R3 chow diet by FPLC method relative to untreated control

## CCCC[C@]1(CC)CS(=O)(=O)c2cc(O[C@@H]3O[C@H](C(=O)O)[C@@H](O)[C@H](O)[C@H]3O)ccc2[C@@H](c2ccccc2)N1
Mus musculus [1]
  Activity: 9%
Mus musculus [2]
  Activity: 28%
Mus musculus [3]
  Activity: 14%
Mus musculus [4]
  Activity: 7 - 23%
Mus musculus [5]
  Activity: 35 - 42%
Mus musculus [6]
  Activity: 54 - 62%
Mus musculus [7]
  Activity: 20 - 29%
Mus musculus [8]
  Activity: 22 - 36%
Mus musculus [9]
  Activity: 54 - 55%
Mus musculus [10]
  Activity: 43%
Mus musculus [11]
  Activity: 64%
Mus musculus [12]
  Activity: 69%
Mus musculus [13]
  Activity: 64%
Mus musculus [14]
  Activity: 15%
Mus musculus [15]
  Activity: 71%

## CC(C)c1c(C(=O)Nc2ccccc2)c(-c2ccccc2)c(-c2ccc(F)cc2)n1CC[C@@H](O)C[C@@H](O)CC(=O)[O-].CC(C)c1c(C(=O)Nc2ccccc2)c(-c2ccccc2)c(-c2ccc(F)cc2)n1CC[C@@H](O)C[C@@H](O)CC(=O)[O-].[Ca+2] [ATORVASTATIN CALCIUM]
Mus musculus [16]
  Activity: 43%
Mus musculus [17]
  Activity: 22%
